The text below walks through data of publication PMC7169394, “Binding Constants of Substituted Benzoic Acids with Bovine Serum Albumin” (Pharmaceuticals, 2020).

Where two headings read alike, the source gives them in different places. Bounds are passed on as bounds.

For test [1], the target named is bovine serum albumin (BSA) (Bos taurus, UniProt P02769). The test can be described thus: biochemical. Format: binding.
The test system of test [2] is human serum albumin (HSA). More on the design: method as in PMID 3664856. To be noted: UC, 288 K; cited from earlier work.
Test [3] has as its system BSA. Also noted: method as in PMID 5677620. To be noted: SP, 310 K; cited from earlier work.
Test [4] concerns BSA. To be noted: SF, 298 K; cited from earlier work.
In test [5] the test system is BSA. To be noted: UC, cited from earlier work.
Test [6] concerns human serum albumin (HSA). The note with it: SF, 298 K; cited from earlier work.
In test [7] the test system is BSA. The note with it: CE, 298 K; cited from earlier work.
The subject of test [8] is BSA. Also noted: method as in PMID 27098963. The note with it: ED, 310 K; cited from earlier work.
[9] abbreviates: 298 K, phosphate buffer pH 7.4, 0.05 M, BSA about 1 µM, 1:1 model, standard state 1 M, value is K multiplied by 10^−4, read-out: K∙10^−4 (binding constant with BSA, final corrected value) (converted).
[10] abbreviates: 298 K, phosphate buffer pH 7.4, 0.05 M, BSA about 1 µM, 1:1 model, standard state 1 M, […], read-out: K∙10^−4 (binding constant with BSA, final corrected value) (converted).

Chain of bovine serum albumin (BSA) (P02769 25-607): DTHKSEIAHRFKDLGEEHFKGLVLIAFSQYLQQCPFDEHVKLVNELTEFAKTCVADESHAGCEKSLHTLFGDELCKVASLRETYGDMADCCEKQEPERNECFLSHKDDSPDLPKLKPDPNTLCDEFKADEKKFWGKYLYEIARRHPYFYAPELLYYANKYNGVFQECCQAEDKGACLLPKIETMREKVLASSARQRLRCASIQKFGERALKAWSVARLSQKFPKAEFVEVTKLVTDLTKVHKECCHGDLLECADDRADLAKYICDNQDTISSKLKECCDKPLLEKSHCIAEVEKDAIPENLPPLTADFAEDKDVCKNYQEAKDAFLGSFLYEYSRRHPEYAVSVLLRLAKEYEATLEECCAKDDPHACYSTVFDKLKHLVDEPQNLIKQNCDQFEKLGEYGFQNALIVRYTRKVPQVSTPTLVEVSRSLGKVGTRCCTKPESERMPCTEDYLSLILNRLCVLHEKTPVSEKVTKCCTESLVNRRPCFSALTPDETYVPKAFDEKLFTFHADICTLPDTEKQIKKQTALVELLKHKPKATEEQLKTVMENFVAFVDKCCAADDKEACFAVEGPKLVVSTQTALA

In test [1], `N#Cc1ccccc1C(=O)O` [2-cyanobenzoic acid] showed a Kd of 38.5 µM.
Regarding `O=C(O)c1ccc(O)cc1` [4-hydroxybenzoic acid], the entries for the “K·10^−4 HSA” value in test [2] and in test [6] were 0.45 and under 0.1, respectively. Further, the entries for the “K·10^−4 BSA” value in the test on BSA [3], in the test on BSA [4] and in the test with BSA [5] (288 K) were 0.79, under 0.1 and 0.68, respectively. In test [1], this compound gave a Kd of 100 ± 10 µM.
Take `O=C(O)c1ccccc1O` [2-hydroxybenzoic acid]: the “K·10^−4 BSA” value is 10.0 in the test with BSA [3], 7.38 with BSA [4] and 3.92 with BSA [7]. The “K·10^−4 HSA” value in test [6] is 190.
For `O=C(O)c1ccccc1I` [2-iodobenzoic acid], the Kd in test [1] (setting [9]) is 30.3 µM.
For the compound `O=C(O)c1cccc(O)c1` [3-hydroxybenzoic acid], the “K·10^−4 BSA” value in the test on BSA [3] was 5.01; in the test on BSA [4], 0.85. The “K·10^−4 HSA” value in test [6] is 0.34 (SF) [10]. Besides, the Kd in test [1] was 52.6 µM.
Turning to `O=C(O)c1ccc(I)cc1` [4-iodobenzoic acid], the Kd in test [1] (setting [9]) is 24.4 µM.
For `O=C(O)c1cccc([N+](=O)[O-])c1` [3-nitrobenzoic acid], the Kd in test [1] (setting [10]) is 12.8 µM.
In the case of `O=C(O)c1cccc(I)c1` [3-iodobenzoic acid], the Kd in test [1] (setting [9]) is 19.6 µM.
As to `N#Cc1cccc(C(=O)O)c1` [3-cyanobenzoic acid], in test [1], the Kd is 25.6 µM.
On to `N#Cc1ccc(C(=O)O)cc1` [4-cyanobenzoic acid], for which the “K·10^−4 BSA” value in the test on BSA [5] (288 K) was 1.66 (UC, 288 K) [8].
For the compound `O=C(O)c1ccccc1Br` [2-bromobenzoic acid], in the test with BSA [5] (310 K), the “K·10^−4 BSA” value was 3.98 (UC, 310 K) [9]. The Kd in test [1] is 43.5 µM.
Regarding `O=C(O)c1ccccc1[N+](=O)[O-]` [2-nitrobenzoic acid], the Kd in test [1] is 47.6 µM.
In the case of `O=C(O)c1cccc(Br)c1` [3-bromobenzoic acid], in the test on BSA [5] (310 K), the “K·10^−4 BSA” value was 63.1 (UC, 310 K) [9]. In addition, the Kd in test [1] (setting [9]) was 28.6 µM.
On to `Cc1ccc(C(=O)O)cc1` [4-methylbenzoic acid], for which the “K·10^−4 HSA” value in test [2] is given as 3.63; in test [6] it was 0.35. Moreover, the “K·10^−4 BSA” value in the test with BSA [3] is 7.94; in the test with BSA [4], under 0.1; in the test with BSA [5] (288 K), 6.76; in the test on BSA [8], 3.16. This compound also showed a Kd in test [1] of 71.4 µM.
In the case of `O=C(O)c1ccccc1` [benzoic acid], in test [2], the “K·10^−4 HSA” value is 2.29 (UC, 288 K) [8]. For the same compound, the “K·10^−4 BSA” value was 5.01 in the test on BSA [3], 2.24 in the test on BSA [5] (288 K) and 1.15 with BSA [8]. Moreover, in test [1], the Kd is 52.6 µM.
With `Nc1cccc(C(=O)O)c1` [3-aminobenzoic acid], the “K·10^−4 BSA” value with BSA [3] was 0.32 (SP, 310 K) [9]. In test [1], this compound gave a Kd of 71.4 µM.
`Nc1ccccc1C(=O)O` [2-aminobenzoic acid]: the “K·10^−4 BSA” value in the test with BSA [3] was 0.63 (SP, 310 K) [9]. Besides, in test [1] (setting [10]), the Kd was 43.5 µM.
For `O=C(O)c1ccccc1F` [2-fluorobenzoic acid], in test [1] (setting [10]), the Kd is 30.3 µM.
For the compound `O=C(O)c1ccc(Br)cc1` [4-bromobenzoic acid], the “K·10^−4 BSA” value with BSA [5] (310 K) was 20.0; in the test on BSA [8], 20.42. In test [1] (setting [9]), the Kd is 18.5 µM.
Take `O=C(O)c1cccc(Cl)c1` [3-chlorobenzoic acid]: the “K·10^−4 BSA” value with BSA [8] is 11.22 (ED, 310 K) [24]. In test [1], the Kd is 17.2 µM.
Consider `O=C(O)c1ccc(O)cc1O` [2,4-dihydroxybenzoic acid], for which the “K·10^−4 BSA” value in the test on BSA [4] is <0.1 (SF) [11]. In addition, in test [6], the “K·10^−4 HSA” value is 0.16 (SF) [10]. In test [1], this compound had a Kd of 32.3 µM.
For the compound `O=C(O)c1ccc([N+](=O)[O-])cc1` [4-nitrobenzoic acid], the “K·10^−4 HSA” value in test [2] was 8.13 (UC, 288 K) [8]. The figures for the “K·10^−4 BSA” value in the test on BSA [5] (288 K) and in the test with BSA [8] were 6.03 and 3.09, respectively. In test [1], the Kd is 12.3 µM.
